# Test results: patent publication US4533670A, “Anti-convulsant fluorenylalkylimidazole derivatives, compositions, and method of use” (Eli Lilly and Company, priority 1983, dated 1985)
# Structures can show the parent of a compound that is named as a salt.
# Test system: not given
# Assay: not given
# Conditions: man, ataxia; cited from earlier work
row,SMILES,plasma level at which ataxia is obvious
1,O=C1NC(=O)C(c2ccccc2)(c2ccccc2)N1 [phenytoin],30000 ng/mL

# Same assay, conditions: man, lethargy; cited from earlier work
row,SMILES,plasma level at which lethargy is apparent
1,O=C1NC(=O)C(c2ccccc2)(c2ccccc2)N1 [phenytoin],about 40 mcg./ml.

# Same assay, conditions: man, nystagmus; cited from earlier work
row,SMILES,plasma level at which nystagmus is seen
1,O=C1NC(=O)C(c2ccccc2)(c2ccccc2)N1 [phenytoin],around 20 mcg./ml.

# Test system: seizures
# Assay: not given
# Conditions: man; cited from earlier work
row,SMILES,plasma level at which seizures are controlled
1,O=C1NC(=O)C(c2ccccc2)(c2ccccc2)N1 [phenytoin],≥ 10 µg/mL

# Test system: extensor tonic convulsions
# Assay: Electroshock induced convulsion inhibition assay
# Assay type: in vivo, Cox standard strain albino male mice
# Conditions: Mus musculus, po, 1 h; p.o. (gavage), mice; 60 minutes after administration (optimal time); 0.1 second, 50 milliampere corneal electroshock; read-out: ED50 (dose which inhibited extensor tonic convulsions in one half of the animals)
# Description: The compounds of Formula II are anticonvulsant agents with a high therapeutic ratio and long half-life and are therefore useful in the treatment and/or prevention of convulsions in mammals. In particular, the compounds are effective against tonic extensor seizures elicited by maximal electroshock and should therefore be useful for treating generalized tonic-clonic ("grand mal"), cortical focal, complex partial (temporal lobe epilepsy), simple partial (focal motor), and post-traumaticseizures in humans. […] In the electroshock induced convulsion inhibition assay, the compound to be tested was dissolved in water (5%--sufficient hydrochloric acid was added for those compounds which were not isolated as a salt in order to effect dissolution) and administered by gavage to each of three Cox standard strain albino male mice (18-24 g.) at the dose level being investigated. Sixty to 240 minutes after compound administration, the mice were subjected to a 0.1 second, 50 milliampere electroshock through corneal electrodes. The animals were examined and evaluated immediately after the electroshock for the occurrence of clonic, flexor tonic, or extensor tonic convulsions, or death and the ED50 was determined for each compound (for the particular time after administration of the compound) as the dose which inhibited the occurrence of extensor tonic convulsions in one half of the animals immediately after the electroshock. For comparison, 18 milliamperes was usually sufficient to produce extensor tonic convulsions in about half of the control animals; at 50 milliamperes, almost all control animals (receiving vehicle only) died. The test results are summarized in Table I as the ED50 's at the optimal time after compound administration.
row,SMILES,ED50
1,"Cc1nccn1CC(=O)c1ccc2c(c1)Cc1ccccc1-2.Cl [Example 1, 1-(9H-fluoren-2-yl)-2-(2-methyl-1H-imidazol-1-yl)ethanone hydrochloride]",210 mg/kg
2,"Cc1cn(CC(=O)c2ccc3c(c2)Cc2ccccc2-3)cn1.Cl [Example 3, 1-(9H-fluoren-2-yl)-2-(4-methyl-1H-imidazol-1-yl)ethanone hydrochloride]",90 mg/kg
3,"CC1(C)c2ccccc2-c2ccc(C(=O)Cn3ccnc3)cc21.Cl [Example 6, 1-(9,9-Dimethyl-9H-fluoren-2-yl)-2-(1H-imidazol-1-yl)ethanone hydrochloride]",48 mg/kg
4,"Cl.O=C(Cn1ccnc1)c1cccc2c1-c1ccccc1C2 [Example 10, 1-(9H-fluoren-4-yl)-2-(1H-imidazol-1-yl)ethanone hydrochloride]",44 mg/kg
5,"Cl.O=C(CCn1ccnc1)c1ccc2c(c1)Cc1ccccc1-2 [Example 11, 1-(9H-fluoren-2-yl)-3-(1H-imidazol-1-yl)-1-propanone hydrochloride]",19 mg/kg
6,"CCC(C(=O)c1ccc2c(c1)Cc1ccccc1-2)n1ccnc1.Cl (stereo not shown) [Example 13, 2-(1H-imidazol-1-yl)-1-(9H-fluoren-2-yl)-1-butanone hydrochloride]",50 mg/kg
7,"OC(Cn1ccnc1)c1ccc2c(c1)Cc1ccccc1-2 (stereo not shown) [Example 14, 1-(9H-fluoren-2-yl)-2-(1H-imidazol-1-yl)-1-ethanol]",22 mg/kg
8,"OC(CCn1ccnc1)c1ccc2c(c1)Cc1ccccc1-2 (stereo not shown) [Example 15, 1-(9H-fluoren-2-yl)-3-(1H-imidazol-1-yl)-1-propanol]",33 mg/kg
9,"O=C(OC(Cn1ccnc1)c1ccc2c(c1)Cc1ccccc1-2)c1ccccc1 (stereo not shown) [Example 16, 1-(9H-fluoren-2-yl)-2-(1H-imidazol-1-yl)-1-ethanol, benzoate ester hydrochloride]",32 mg/kg
10,"CCSC(Cn1ccnc1)c1ccc2c(c1)Cc1ccccc1-2.Cl (stereo not shown) [Example 17, 1-[2-(Ethylthio)-2-(9H-fluoren-2-yl)ethyl]-1H-imidazole hydrochloride]",44 mg/kg
11,"Cl.c1ccc2c(c1)Cc1cc(C3(Cn4ccnc4)OCCCO3)ccc1-2 [Example 21, 1-([2-(9H-fluoren-2-yl)-1,3-dioxan-2-yl]methyl)-1H-imidazole hydrochloride]",32 mg/kg
12,"c1ccc2c(c1)Cc1cc(C3(CCn4ccnc4)OCCO3)ccc1-2 [Example 22, 1-(2-[2-(9H-fluoren-2-yl)-1,3-dioxolan-2-yl]ethyl)-1H-imidazole]",26 mg/kg

# Same assay, conditions: Mus musculus, po, 1.5 h; p.o. (gavage), mice; 90 minutes after administration (optimal time); 0.1 second, 50 milliampere corneal electroshock; read-out: ED50 (dose which inhibited extensor tonic convulsions in one half of the animals)
row,SMILES,ED50
1,"CC(C(=O)c1ccc2c(c1)Cc1ccccc1-2)n1ccnc1.Cl (stereo not shown) [Example 12, 2-(1H-imidazol-1-yl)-1-(9H-fluoren-2-yl)-1-propanone hydrochloride]",35 mg/kg

# Same assay, conditions: Mus musculus, po, 2 h; p.o. (gavage), mice; 120 minutes after administration (optimal time); 0.1 second, 50 milliampere corneal electroshock; read-out: ED50 (dose which inhibited extensor tonic convulsions in one half of the animals)
row,SMILES,ED50
1,"CCc1nccn1CC(=O)c1ccc2c(c1)Cc1ccccc1-2 [Example 2, 2-(2-ethyl-1H-imidazol-1-yl)-1-(9H-fluoren-2-yl)ethanone]",188 mg/kg
2,"Cl.O=C(Cn1ccnc1)c1ccc2c(c1)Cc1cc(Br)ccc1-2 [Example 4, 2-(1H-imidazol-1-yl)-1-(7-bromo-9H-fluoren-2-yl)ethanone hydrochloride]",79 mg/kg
3,"CC1c2ccccc2-c2ccc(C(=O)Cn3ccnc3)cc21.Cl (stereo not shown) [Example 5, 2-(1H-imidazol-1-yl)-1-(9-methyl-9H-fluoren-2-yl)ethanone hydrochloride]",33 mg/kg
4,"Cc1ccc2c(c1)Cc1cc(C(=O)Cn3ccnc3)ccc1-2.Cl [Example 7, 2-(1H-imidazol-1-yl)-1-(7-methyl-9H-fluoren-2-yl)ethanone hydrochloride]",68 mg/kg
5,"Cl.O=C(Cn1ccnc1)c1cccc2c1Cc1ccccc1-2 [Example 9, 1-(9H-fluoren-1-yl)-2-(1H-imidazol-1-yl)ethanone hydrochloride]",20 mg/kg
6,"CC1COC(Cn2ccnc2)(c2ccc3c(c2)Cc2ccccc2-3)O1 (stereo not shown) [Example 19, 1-([2-(9H-fluoren-2-yl)-4-methyl-1,3-dioxolan-2-yl]methyl)-1H-imidazole]",21 mg/kg
7,"CC1(C)COC(Cn2ccnc2)(c2ccc3c(c2)Cc2ccccc2-3)OC1 [Example 20, 1-([2-(9H-fluoren-2-yl)-5,5-dimethyl-1,3-dioxan-2yl]methyl)-1H-imidazole]",65 mg/kg
8,"Cl.c1ccc2c(c1)Cc1cc(C3(Cn4ccnc4)SCCS3)ccc1-2 [Example 23, 1-([2-(9H-fluoren-2-yl)-1,3-dithiolan-2-yl]methyl)-1H-imidazole hydrochloride]",41 mg/kg
9,"CC(O)(Cn1ccnc1)c1ccc2c(c1)Cc1ccccc1-2 (stereo not shown) [Example 24, 1-(1H-imidazol-1-yl)-2-(9H-fluoren-2-yl)-2-propanol]",14 mg/kg

# Same assay, conditions: Mus musculus, po, 3 h; p.o. (gavage), mice; 180 minutes after administration (optimal time); 0.1 second, 50 milliampere corneal electroshock; read-out: ED50 (dose which inhibited extensor tonic convulsions in one half of the animals)
row,SMILES,ED50
1,"Cl.O=C(Cn1ccnc1)c1ccc2c(c1)Cc1ccccc1-2 [Example 8, 2-(1H-imidazol-1-yl)-1-(9H-fluoren-2-yl)ethanone hydrochloride]",25 mg/kg

# Same assay, conditions: Mus musculus, po, 4 h; p.o. (gavage), mice; 240 minutes after administration (optimal time); 0.1 second, 50 milliampere corneal electroshock; read-out: ED50 (dose which inhibited extensor tonic convulsions in one half of the animals)
row,SMILES,ED50
1,"c1ccc2c(c1)Cc1cc(C3(Cn4ccnc4)OCCO3)ccc1-2 [Example 18, 1-([2-(9H-fluoren-2-yl)-1,3-dioxolan-2-yl]methyl)-1H-imidazole]",23 mg/kg
